Test results: patent US20040092595A1, “Analgesic agent” (Seiwa Pharmaceuticals, Ltd., priority 2000, published 2004)

Legend:
mice = assay: Analgesic, anti-inflammatory activity test (formalin test); type: in vivo; details: male ICR mice, 1.0% formalin (20 μl injected), sample 40 mg/kg intraperitoneal, 15 min before stimulation, n=10, average value±standard error; for 1st phase response (0 to 10 min), licking time: control 121.33 ± 5.32; for 2nd phase response (10 to 30 min), licking time: control 183.51 ± 20.10
Procedure: An analgesic, anti-inflammatory activity test (the so-called “formalin test”) was carried out using samples 1 to 9 as test drugs.
A 1.0% formalin solution (20 μl) was injected as a stimulant into the hypoderm of the planta depis in the hind leg of mice (five-week-old male ICR mice which, after purchase, had been subjected to quarantine and acclimation for one week). An act of licking the hind leg by the mice for alleviating the pain was then successively measured with a stopwatch 5 min by 5 min for 30 min. In this case, for each of the test drugs (samples 1 to 9), a suspension corresponding to a dose of 40 mg/kg was prepared using an aqueous solution of 0.5% polyoxyethylene sorbitan monooleate (Tween 80; a product of Atlas). The suspension (100 μl) for each sample was intraperitoneally administered to the mice 15 min before the stimulation. For a control group, the same volume of 0.5% Tween 80 was intraperitoneally administered to the mice.
It is generally known that the formalin test as described above causes a biphasic response, that is, the following first-phase response and second-phase response.
The first-phase response refers to a response indicated by pain in a 0 to 10 min period after the stimulation with formalin, that is, a response indicated by pain caused by direct stimulation of the sensory nerve at its end upon the injection of formalin. At the present time, only narcotic analgesics such as morphine are known to have inhibitory activity against this first-phase response. On the other hand, the second-phase response refers to a response indicated by pain in a 10 to 30 min period after the stimulation with formalin, that is, a response indicated by pain attributable to inflammation caused upon the injection of formalin. This response can be inhibited by conventional analgesics such as aspirin.
The analgesic, anti-inflammatory activity was evaluated in two separate phases, a phase from 0 min to 10 min after the administration and a phase from 10 min to 30 min after the administration. For each of the phases, the total number of seconds for which the mouse licked the hind leg (licking time) was calculated, and this value was compared with the value for the control.

rats = assay: Acute gastric ulcer test; type: in vivo
Procedure: An acute gastric ulcer test was carried out using sample 2 and indometacin as test drugs. […] By contrast, for sample 2, the same test was carried out, except that, instead of indometacin, sample 2 was orally administered at a dose of 10 to 300 mg/kg.

Row | Compound | 1st phase response (0 to 10 min), licking time (mice) [s] | 2nd phase response (10 to 30 min), licking time (mice) [s] | occurrence of a gastric ulcer (rats; orally administered at a dose of not less than 50 mg/kg, seven hr after the administration) | occurrence of a gastric ulcer (rats; orally administered at a dose of 10 to 300 mg/kg, same test as for indometacin)
1 | COC(=O)C1C(c2ccc(O)cc2)C(C(=O)OC)C1c1ccc(O)cc1 (stereo not drawn) [Sample 8, dimethyl 4,4′-dihydroxy-α-truxillate] | 89.65 ± 4.67 | 122.70 ± 7.16 |  | 
2 | COc1ccc2c(c1)c(CC(=O)O)c(C)n2C(=O)c1ccc(Cl)cc1 [indometacin, reference compound] |  |  | the occurrence of a gastric ulcer was clearly learned | 
3 | O=C(O)C1C(C(=O)O)C(c2ccccc2)C1c1ccccc1 (stereo not drawn) [Sample 4, β-truxinic acid] | 59.40 ± 7.19 | 74.75 ± 11.94 |  | 
4 | O=C(O)C1C(c2ccc(O)cc2)C(C(=O)O)C1c1ccc(O)cc1 (stereo not drawn) [Sample 2, 4,4′-dihydroxy-α-truxillic acid] | 102.34 ± 4.09 | 7.12 ± 3.29 |  | an ulcer did not occur at all
5 | O=C(O)C1C(C(=O)O)C(c2ccc(Cl)cc2)C1c1ccc(Cl)cc1 (stereo not drawn) [Sample 6, 4,4′-dichloro-β-truxinic acid] | 59.37 ± 6.04 | 34.44 ± 9.13 |  | 
